Reference: article PMC12717099, “Peptidoglycan recruitment by a penicillin binding protein” (Nature Communications, 2025)

What was measured:
[1] = system: E. faecium D344SRF pCWR624Δpbp5 (empty plasmid); experiment: MIC by broth microdilution, pCWR624Δpbp5; format: cell-based, Enterococcus faecium; details: strain pCWR624Δpbp5; 37 °C, 20 h; n=3
Description: (§1) The synthetic genes were purchased from GeneWiz (South Plainfield, NJ). The ribosome binding site sequence AGGAGG (Shine-Dalgarno), and a string of five A’s followed by the sequence […], that corresponds to the first 15 bp found in pbp5 from E. faecium C68 were added upstream of the START codon. The terminator sequence […] was added downstream of the STOP codon. BamHI restriction sites were added to the flanking 5′ and 3′ ends. The synthetic genes were inserted into the vector pCWR624Δpbp5. This vector was derived from pCWR624[10], in which the pbp5 gene from D366 was excised by digestion with BamHI followed by re-ligation of the vector, allowing subsequent insertion of modified synthetic pbp5s into the BamHI site downstream of ftsWEfm and psr from E. faecium C68[10]. The synthetic genes were inserted in a BamHI site located downstream of psr. The proper orientation was confirmed by PCR amplification using the forward primer OR_pbp5_FOR_1 (5′-[…]-3′) and the reverse primer OR_pbp5_REV_1 (5′-[…]-3′). Plasmids were sequence verified for the specific binding site mutations. The resulting constructions were electroporated into the natural pbp5(-) mutant E. faecium D344SRF with a selection on brain heart infusion agar (BHI) plates containing kanamycin (1500 µg/ml).
(§2) E. faecium strains were streaked fresh from −80 °C stored glycerol stocks onto brain heart infusion (BHI) agar plates and incubated for 18 h at 37 °C. Strains harboring the plasmid derivatives were grown under antibiotic pressure on agar plates containing kanamycin at 1500 µg/ml. A single colony was inoculated into BHI or BHI-kanamycin (1500 µg/ml) for overnight cultures (18 h).
(§3) MIC determination was performed using a standard broth microdilution technique in duplicate from independent cultures. Overnight cultures were inoculated into 3 ml of BHI or BHI-kanamycin (1500 µg/ml) broth in a dilution of 1:100 and incubated until an OD600 of ~0.5 was reached. Cultures were diluted 1:1000 and inoculated into the 96-well plates with the corresponding antibiotics to be tested. Plates were incubated at 37 °C for 20 h and read by eye. […]

[2] = system: E. faecium D344SRF pCWR624Δpbp5_pbp5_V5; experiment: MIC by broth microdilution, pbp5_V5; format: cell-based, Enterococcus faecium; details: strain pbp5_V5 (Q396A_E397A); 37 °C, 20 h; n=3
Description: as §1, §2, §3

[3] = system: PBP5; experiment: Bocillin FL fluorescence polarization binding competition assay; parameters: species or system Enterococcus faecium; details: antibiotic fixed 60 μM, PBP5 3.6 µM, Bocillin FL 30 nM, 37 °C, n = 3
Description: The assays were performed in low-volume 384-well black polystyrene assay plate (Corning, 4511), using assay buffer (100 mM Na-phosphate pH 7.0, 0.01% Triton X-100) to prevent the adsorption of Bocillin FL (Invitrogen, B13233) to the plate. Bocillin FL was dissolved in DMSO and stored as a 1 mM stock in the −20 °C freezer. Fresh working stock of Bocillin FL was made each day for the assays by diluting the stock with the assay buffer for a final concentration of 30 nM. The final concentration of PBP5 for the assays was 3.6 µM. The antibiotic, either penicillin G, ceftaroline or ceftriaxone, was added to PBP5 before the reactions were initiated by the addition of Bocillin FL. The plate was sealed with ThermalSeal RT silicone adhesive film (EXCEL Scientific, TSS-RTQ-100) to prevent evaporation during the measurements. Reaction without PBP5 (Bocillin FL only) was used as negative control. All reactions were carried out at 37 °C in a CLARIOStar plate reader (BMG Labtech) equipped with the 482 nm excitation filter, 530 nm emission filter and a dichroic filter LP504. The focal height was adjusted to 11.3 mm and the gain was set to 10 mP using the negative control. Measurements were made at 40 s intervals for up to 75 min with 100 flashes per measurement. Three replicates were made for each treatment in each run, and the experiment was repeated 3 times.

[4] = system: E. faecium D344SRF pCWR624 (PBP5 plasmid); experiment: Disk diffusion assay, pCWR624; format: cell-based, Enterococcus faecium; details: strain pCWR624; 37 °C, 24 h; n=3
Description: as §1, §2
Antibiotic disks used were manufactured by BD BBL^TM. Disk diffusion assays were performed according to the Clinical and Laboratory Standards Institute (CLSI) guidance. Overnight cultures were inoculated into 3 ml of BHI or BHI-kanamycin (1500 µg/ml) broth with a dilution of 1:100 and incubated until an OD600 of ~0.5 was reached. […] The plates were incubated at 37 °C and the zones of inhibition were measured after 24 h. […]

[5] = system: PBP5:ceftaroline complex; experiment: 1D 1H STD NMR of SP2 with PBP5:ceftaroline; format: binding, Enterococcus faecium; details: for STD amplification factor: ceftaroline-saturated PBP5, 2 s saturation
Source text: Total saturation time for STD measurements was 2 s.
Overlapped peaks were completely excluded from the analysis.

In the case of CO/N=C(\C(=O)N[C@@H]1C(=O)N2C(C(=O)O)=C(CSc3nc(=O)c(=O)[nH]n3C)CS[C@H]12)c1csc(N)n1 [Ceftriaxone, ceftriaxone], the “MIC (µg/ml) [Range]” value [1] is reported as 50 [25-100] µg/ml, the “MIC (µg/ml) [Range]” value [2] is reported as > 3200 [>3200] µg/ml and the “binding/inhibition of PBP5, in words” value [3] is reported as “does not bind/inhibit PBP5”. For the same compound, the “binding/inhibition of PBP5, in words” value ([3]; listed as ceftriaxone) was “does not bind” and the “Zone Size (mm) [Range]” value [4] was 0 [0] mm.
D-Lac-L-Ala-D-iGln-L-Lys(D-iAsn) [SP2] was tested, and the “STD amplification factor, ref to SP1 (fraction)” value ([5]; 1H DLacβ) was 0.3324, the “STD, ref to SP1 (percent)” value ([5]; 1H DLacβ) was 33.2419 and the STD amplification factor ([5]; 1H DLacβ) was 8.945. The “STD amplification factor, ref to SP1 (fraction)” value ([5]; 1H DQ2β (first listed)) was 0.6862, the “STD, ref to SP1 (percent)” value ([5]; 1H DQ2β (first listed)) was 68.622 and the STD amplification factor ([5]; 1H DQ2β (first listed)) was 18.4651. For the same compound, the “STD amplification factor, ref to SP1 (fraction)” value ([5]; 1H DQ2β (second listed)) was 0.9243, the “STD, ref to SP1 (percent)” value ([5]; 1H DQ2β (second listed)) was 92.4275 and the STD amplification factor ([5]; 1H DQ2β (second listed)) was 24.8707. For the same compound, the “STD amplification factor, ref to SP1 (fraction)” value ([5]; 1H DQ2γ) was 0.3051, the “STD, ref to SP1 (percent)” value ([5]; 1H DQ2γ) was 30.515 and the STD amplification factor ([5]; 1H DQ2γ) was 8.211. The “STD amplification factor, ref to SP1 (fraction)” value ([5]; 1H K3α) was 0.5095, the “STD, ref to SP1 (percent)” value ([5]; 1H K3α) was 50.9537 and the STD amplification factor ([5]; 1H K3α) was 13.7108. For the same compound, the “STD amplification factor, ref to SP1 (fraction)” value ([5]; 1H K3β) was 1.007, the “STD, ref to SP1 (percent)” value ([5]; 1H K3β) was 100.738 and the STD amplification factor ([5]; 1H K3β) was 27.1069. The “STD amplification factor, ref to SP1 (fraction)” value ([5]; 1H K3γ) was 0.5588, the “STD, ref to SP1 (percent)” value ([5]; 1H K3γ) was 55.8765 and the STD amplification factor ([5]; 1H K3γ) was 15.0355. For the same compound, the “STD amplification factor, ref to SP1 (fraction)” value ([5]; 1H K3δ) was 0.7209, the “STD, ref to SP1 (percent)” value ([5]; 1H K3δ) was 72.0884 and the STD amplification factor ([5]; 1H K3δ) was 19.3978. The “STD amplification factor, ref to SP1 (fraction)” value ([5]; 1H K3ε) was 0.1435, the “STD, ref to SP1 (percent)” value ([5]; 1H K3ε) was 14.3544 and the STD amplification factor ([5]; 1H K3ε) was 3.863. The “STD amplification factor, ref to SP1 (fraction)” value ([5]; 1H LA1α) was 0.3824, the “STD, ref to SP1 (percent)” value ([5]; 1H LA1α) was 38.2438 and the STD amplification factor ([5]; 1H LA1α) was 10.2908. The “STD amplification factor, ref to SP1 (fraction)” value ([5]; 1H LA1β) was 0.3611, the “STD, ref to SP1 (percent)” value ([5]; 1H LA1β) was 36.1111 and the STD amplification factor ([5]; 1H LA1β) was 9.717. For the same compound, the “STD amplification factor, ref to SP1 (fraction)” value ([5]; 1H iNα,DQ2α) was 0.2432, the “STD, ref to SP1 (percent)” value ([5]; 1H iNα,DQ2α) was 24.3189 and the STD amplification factor ([5]; 1H iNα,DQ2α) was 6.544. For the same compound, the “STD amplification factor, ref to SP1 (fraction)” value ([5]; 1H iNβ) was 0.3137, the “STD, ref to SP1 (percent)” value ([5]; 1H iNβ) was 31.3676 and the STD amplification factor ([5]; 1H iNβ) was 8.441.
